The test system of data set [1] is rats that had been fed fructose doses. Nature of the data set: Hypoglycemic activity: lowering of the blood sugar level in rats fed fructose doses. In kind it is in vivo, rat. The settings on record: 100 mg/kg once a day over 3 days, 24 hours after last administration, vs placebo control group. The procedure:
The hypoglycemic activity of some bis(4-hydroxy-phenyl) alkanoic acid derivatives of formulae I and II could be established by administering once a day, over 3 days, 100 mg of the active compound per kg of test animal to rats that had been fed fructose doses and by taking blood samples 24 hours after the last administration in order to determine the blood sugar level by means of an autoanalyzer.
The lowering of the blood sugar content indicated in following Table 4 refers to a control group treated with placebos (blank doses).

Data set [2] has as its system dietetic-medicamentous hyperlipemia of male rats. Nature of the data set: Action on the dietetic-medicamentous hyperlipemia of male rats. It counts as in vivo. Conditions: Rattus norvegicus, po, 192 h, 100 mg/kg/day p.o., 8 days, male rats on cholesterol diet. The source says:
All the animals were fed with a diet food containing 2% of cholesterol, 2% of sodium cholate, 0.3% of methyl-thiouracil, 20% of coco fat and 44% of cane sugar. The serum lipid concentration of the animals treated with the compounds of the invention was compared to that of an untreated control group on the same diet, which diet causes the serum cholesteral concentration to rise within 1 week to about 10 times the initial value, that of the serum triglycerides to 3 times and that of the phospho-lipids in the serum to 4 times the initial value. The lipid phosphorus was determined according to the method of Messrs. Boehringer Mannheim W. Germany. At the same time as the diet was offered, the compounds of the invention were administered once a day to groups of rats, each containing 10 animals, over a period of 8 days by means of an esophageal sound. The change in percentage in the serum lipid concentration as compared to the control group (diet without active substance) is indicated in Table 2.

In data set [3] the test system is hypertriglyceridemia induced by carbohydrates in male rats. Description: Action on the hypertriglyceridemia induced by carbohydrates (fructose) in male rats. It counts as in vivo. The settings on record: Rattus norvegicus, 72 h, 3-day oral pre-treatment, vs untreated control, read-out: Change in percentage of hypertriglyceridemia induced by carbohydrates.
A short description of a further data set: in vivo. Conditions: mouse, po.
In the next data set the test system is normolipemic rats. Description: Reduction of serum lipid values in normolipemic rats (8 days oral). Conditions: 8 doses, male rats; for serum cholesterol, change in percentage (B: referred to the untreated control group) / serum triglyceride, change in percentage (B: referred to the untreated control group): column B; for serum cholesterol, change in percentage (A: referred to the initial value) / serum triglyceride, change in percentage (A: referred to the initial value): column A. It counts as in vivo, rat. As for the experimental part: 1. Male rats having a normal serum lipid content were treated for eight days with different daily doses mentioned in Table 1. The values given in that Table stand for a change in the serum concentrations of certain lipid classes. The doses administered per os by means of an esophageal sound were 100, 30 and 10 mg/kg/day. Generally, prior to and after the treatment, blood samples were taken and the concentration of cholesterol in the serum was determined according to the method of Lauber and Richterich and that of triglycerides according to the method of Eggstein and Kreutz. In the examples of the following Table 1, the changes in the serum lipid values due to the treatment with the substances of the invention are defined as follows:
a. The changes in percent in the final value of the treated group, referred to the initial value of the treated group, the initial value being 100 percent, and
b. the change in the final value of the treated group, referred to the final value of an accompanying untreated control group, the untreated control group's value being defined as 100 percent. Thus, the value given in columns A is the change in percentage referred to the initial value, whereas the value given in columns B is the change in percentage of the treated group, referred to the untreated control group.

For another data set, the system named is mice. Conditions: Table 3.
The mark [4] stands for this setting: read-out: serum cholesterol, change in percentage as compared to the control group.
The mark [5] stands for this setting: read-out: serum lipid phosphorus, change in percentage as compared to the control group.
Setting [6] is: read-out: serum triglyceride, change in percentage as compared to the control group.

The structures appear in SMILES notation. Where two headings read alike, the source gives them in different places. Where only a bound is given, the exact number is not on record here.

On to `CC(CCC(=O)O)(c1ccc(O)cc1)c1ccc(O)cc1` [Example 19, 4,4-Bis(4'-hydroxy-phenyl)pentanoic acid], for which, in data set [1], the “lowering of the blood sugar level in per cent” value (“lowering … per cent” below) is -20 per cent. The change in vivo at 100 mg/kg in data set [2] (setting [4]) is -17%; in data set [2] (setting [5]) it was -17%; in data set [2] (setting [6]) it was -28%; in data set [3], -27%.

Regarding `CC(C)(C)c1cc(C(C)(CC(=O)OCCOC(=O)CC(C)(c2cc(Br)c(O)c(C(C)(C)C)c2)c2cc(Br)c(O)c(C(C)(C)C)c2)c2cc(Br)c(O)c(C(C)(C)C)c2)cc(Br)c1O` [Example 21, Bis [3,3-bis(4'-hydroxy-3'-tert.-butyl-5'-bromophenyl)butanoic acid] glycol ester], the LD50 – broadly, the dose at which mortality reaches 50% – in “in vivo” amounted to 4090 mg/kg.

Consider `CCCCOC(=O)CC(C)(c1ccc(O)c(C)c1)c1ccc(O)c(C)c1` [Example 8, 3,3-bis(4'-hydroxy-3'-methyl-phenyl)butanoic acid n-butyl ester], for which the “serum cholesterol, change in percentage (B: referred to the untreated control group)” value is listed as -13% in the data set with normolipemic rats (10 mg/kg/day p.o.), -16% with normolipemic rats (30 mg/kg/day p.o.) and -26% in the data set on normolipemic rats (100 mg/kg/day p.o.). The “serum triglyceride, change in percentage (B: referred to the untreated control group)” value is given as -25% with normolipemic rats (10 mg/kg/day p.o.) and -22% in the data set on normolipemic rats (30 mg/kg/day p.o.). Besides, the “serum cholesterol, change in percentage (A: referred to the initial value)” value with normolipemic rats (30 mg/kg/day p.o.) is -14%; in the data set with normolipemic rats (100 mg/kg/day p.o.), -43%. Besides, the “serum triglyceride, change in percentage (A: referred to the initial value)” value with normolipemic rats (100 mg/kg/day p.o.) was -23%. Further, the LD50 in the data set “in vivo” is > 8000 mg/kg. Moreover, the change in vivo at 100 mg/kg in data set [2] (setting [4]) was -36%; in data set [2] (setting [5]), -37%; in data set [2] (setting [6]), -39%. The LD50 mice p.o. in the data set on mice is reported as > 8000 mg/kg.

For `CC(C)(C)c1cc(C(C)(CC(=O)OCCCCCCOC(=O)CC(C)(c2ccc(O)c(C(C)(C)C)c2)c2ccc(O)c(C(C)(C)C)c2)c2ccc(O)c(C(C)(C)C)c2)ccc1O` [Example 17, Bis [3,3-bis(4'-hydroxy-3'-tert.-butyl-phenyl)butanoic acid]hexane-diol-1,6ester], the 50% lethal dose (LD50) in “in vivo” was > 8000 mg/kg. In data set [1], the “lowering … per cent” value is recorded as -18 per cent. The change in vivo at 100 mg/kg in data set [3] is -10%.

Consider `CC(C)(C)c1cc(C(C)(CCC(=O)O)c2ccc(O)c(C(C)(C)C)c2)ccc1O` [Example 14, 4,4-Bis(4'-hydroxy-3'-tert.-butyl-phenyl)pentanoic acid], for which, in the data set “in vivo”, the LD50 turned out to be 4000 mg/kg. In addition, the change in vivo at 100 mg/kg is -36% in data set [2] (setting [4]), -25% in data set [2] (setting [5]) and -13% in data set [2] (setting [6]).

Molecule `CCCCNC(=O)CC(C)(c1ccc(O)c(C(C)(C)C)c1)c1ccc(O)c(C(C)(C)C)c1` [Example 13, 3,3-Bis(4'-hydroxy-3'-tert.-butyl-phenyl)butanoic acid n-butylamide] had an LD50 in “in vivo” of 8000 mg/kg. Moreover, the change in vivo at 30 mg/kg in data set [3] is -17%.

Regarding `CC(C)(C)c1cc(C(C)(CC(=O)O)c2ccc(O)c(C(C)(C)C)c2)ccc1O` [Example 2, 3,3-Bis(4'-hydroxy-3'-tert.-butyl-phenyl)butanoic acid], in the data set “in vivo”, the LD50 was determined as 2000 mg/kg. For the same molecule, the change in vivo at 100 mg/kg is -19% in data set [2] (setting [4]), -9% in data set [2] (setting [5]) and -13% in data set [2] (setting [6]). Moreover, the change in vivo at 30 mg/kg in data set [3] is -63%.

On to `CCCCOC(=O)C(c1ccc(O)c(C(C)(C)C)c1)c1ccc(O)c(C(C)(C)C)c1` [Example 5, Bis(4'-hydroxy-3'-tert.-butyl-phenyl)ethanoic acid n-butyl ester], for which the “lowering … per cent” value in data set [1] is listed as -30 per cent.

Regarding `CC(C)(C)c1cc(C(C)(CCC(=O)OCCOC(=O)CCC(C)(c2ccc(O)c(C(C)(C)C)c2)c2ccc(O)c(C(C)(C)C)c2)c2ccc(O)c(C(C)(C)C)c2)ccc1O` [Example 18, Bis [4,4-bis(4'hydroxy-3'-tert.-butyl-phenyl)pentanoic acid] glycol ester], in the data set with normolipemic rats (100 mg/kg/day p.o.), the “serum cholesterol, change in percentage (A: referred to the initial value)” value was -48%; the “serum triglyceride, change in percentage (A: referred to the initial value)” value was -51%; the “serum cholesterol, change in percentage (B: referred to the untreated control group)” value is -33%; the “serum triglyceride, change in percentage (B: referred to the untreated control group)” value was -17%. This molecule also showed a median lethal dose (LD50) in “in vivo” of 4340 mg/kg. In data set [2] (setting [4]), the change in vivo at 100 mg/kg is -36%. Moreover, the change in vivo at 100 mg/kg in data set [2] (setting [5]) is -37%. Moreover, the change in vivo at 100 mg/kg in data set [2] (setting [6]) is -19%. Also, in data set [3], the change in vivo at 30 mg/kg is -34% and the change in vivo at 100 mg/kg is -46%.

`CC(C)(C)c1cc(C(C)(CC(=O)OCCOC(=O)CC(C)(c2ccc(O)c(C(C)(C)C)c2)c2ccc(O)c(C(C)(C)C)c2)c2ccc(O)c(C(C)(C)C)c2)ccc1O` [Example 16, Bis [3,3-bis(4'-hydroxy-3'-tert.-butyl-phenyl)butanoic acid] glycol ester]: in the data set on normolipemic rats (30 mg/kg/day p.o.), the “serum cholesterol, change in percentage (A: referred to the initial value)” value is -10%; the “serum cholesterol, change in percentage (B: referred to the untreated control group)” value is -15%; the “serum triglyceride, change in percentage (B: referred to the untreated control group)” value was -32%. In the data set with normolipemic rats (100 mg/kg/day p.o.), the “serum cholesterol, change in percentage (A: referred to the initial value)” value was -20%; the “serum triglyceride, change in percentage (A: referred to the initial value)” value is listed as -27%; the “serum cholesterol, change in percentage (B: referred to the untreated control group)” value is listed as -21%; the “serum triglyceride, change in percentage (B: referred to the untreated control group)” value was -26%. Moreover, in data set [3], the change in vivo at 30 mg/kg was -24%.

Take `Cc1cc(C(C)(CC(=O)O)c2ccc(O)c(C)c2)ccc1O` [Example 1, 3,3-Bis(4'-hydroxy-3'-methyl-phenyl)butanoic acid]: the change in vivo at 100 mg/kg was -11% in data set [2] (setting [4]), -15% in data set [2] (setting [5]) and -18% in data set [2] (setting [6]).

For the molecule `CCOC(=O)C(C)(C)Oc1ccc(Cl)cc1` [Clofibrat, reference compound], the “serum cholesterol, change in percentage (A: referred to the initial value)” value in the data set on normolipemic rats (100 mg/kg/day p.o.) is given as -22%. In addition, the “serum triglyceride, change in percentage (A: referred to the initial value)” value with normolipemic rats (100 mg/kg/day p.o.) is given as -48%. Also, the “serum cholesterol, change in percentage (B: referred to the untreated control group)” value in the data set with normolipemic rats (100 mg/kg/day p.o.) is -15%. In addition, the “serum triglyceride, change in percentage (B: referred to the untreated control group)” value with normolipemic rats (100 mg/kg/day p.o.) is -37%. The LD50 in the data set “in vivo” (LD50 mice p.o., mice, Table 3) was in the range of 2000 to 2500 mg/kg; in the data set “in vivo” (p.o. LD50 mice, mice, Table 2), 2000 to 25000 mg/kg. The change in vivo at 100 mg/kg in data set [2] (setting [4]) is 0%; in data set [2] (setting [5]), -12%; in data set [2] (setting [6]) it was -27%; in data set [3], -15%.

Turning to `CC(C)(C)c1cc(C(C(=O)O)c2ccc(O)c(C(C)(C)C)c2)ccc1O` [Example 4, Bis(4'-hydroxy-3'-tert.-butyl-phenyl)ethanoic acid], the change in vivo at 100 mg/kg is -29% in data set [2] (setting [4]), -25% in data set [2] (setting [5]) and -21% in data set [2] (setting [6]).
